Test results: US20100166826A1, “BIODEGRADABLE INTRAVAGINAL DEVICES FOR DELIVERY OF THERAPEUTICS” (University of Uath Research Foundation, priority 2007, published 2010)

Test: release of TMC120 from degradable polyurethane (FIG. 5)
Assay type: physicochemical
Settings: period of one month; from degradable polyurethane made from terathane-co-(caprolactone), 4,4′-methylenebis-cyclohexane diisocyanate and 1,4-butanediol

release profile of TMC120: sustained release profile
Structure (SMILES): Cc1cc(C)c(Nc2ccnc(Nc3ccc(C#N)cc3)n2)c(C)c1 [TMC120, 4-[4-(mesitylamino)pyrimidin-2-ylamino)-benzonitrile]
